Key:
[1] = test system: cap-dependent translation (Firefly luciferase); assay type: biochemical; conditions: 1 μM compound, Krebs-2 extracts, relative to DMSO
[2] = test system: HCV (HCVcc-Luc) infection of Huh7.5.1 cells; assay: HCV infection inhibition assay; assay type: cell-based; conditions: relative to aglaroxin C (6)
Huh7.5.1 cells = assay: Cytotoxicity, CellTiter-Glo Cell Viability Luminescent Assay; assay type: cell-based
HCV = assay type: cell-based; conditions: time-of-addition; racemic compounds
[3] = test system: HCV IRES-dependent translation (Renilla luciferase); assay type: biochemical; conditions: 1 μM compound, Krebs-2 extracts, relative to DMSO
translation = conditions: ref 9p; cited from earlier work
[4] = test system: Dengue virus (serotype 2, Thailand 16681 strain); assay type: cell-based; conditions: Huh7.5.1 cells, MOI 0.1, 2 μM compound for 3 h, RNA 48 h post-infection
[5] = test system: hepatitis C viral (HCV) entry; conditions: at a low μM concentration; cited from earlier work

| Molecule | translation inhibition of firefly luciferase (cap-dependent) [1] | anti-HCV activity, compound added 3 h after infection was initiated (HCV) | anti-HCV activity, compound added together with the virus (HCV) | inhibition of HCV mRNA (IRES-dependent) translation [3] | translation inhibition (in words) (translation) | other results |
| --- | --- | --- | --- | --- | --- | --- |
| COc1ccc([C@@]23Oc4cc(OC)cc(OC)c4[C@]2(O)c2nc(-c4cccc(OC)c4)[nH]c(=O)c2[C@H]3c2ccccc2)cc1 [12s] | minimal | partially lost their activity | maximal anti-HCV activity | not inhibited | – | inhibition of HCV infection in comparison to 6 (fold) [2]: three-fold greater inhibition; cell death at 200 μM (Huh7.5.1 cells): less than 50%; cell death reached (Huh7.5.1 cells): < 50%; maximum cytotoxicity plateau, cell death (Huh7.5.1 cells): 35% |
| CONC(=O)[C@H]1[C@@H](O)[C@@]2(O)c3c(OC)cc(OC)cc3O[C@@]2(c2ccc(OC)cc2)[C@@H]1c1ccccc1 [CR-1–31-B] | strong inhibition | – | – | – | – | – |
| COc1ccc([C@@]23Oc4cc(OC)cc(OC)c4[C@]2(O)C2=C(C(=O)N4CCC[C@H]4N2)[C@H]3c2ccccc2)cc1 [compound 5, aglaiastatin] | – | – | – | – | promising translation inhibitor | – |
| COc1ccc([C@@]23Oc4cc(OC)cc(OC)c4[C@]2(O)[C@H](O)[C@H](C(=O)N(C)C)[C@H]3c2ccccc2)cc1 [rocaglamide] | – | – | – | – | – | inhibition of Dengue virus infection [4]: inhibited |
| aglaroxin C [compound 6] | minimal | partially lost their activity | maximal anti-HCV activity | not inhibited | only moderate translation inhibition | inhibition of HCV entry into host cells [5]: inhibited |
